This is an account of results in publication PMC5433929, “High-resolution crystal structure of the human CB1 cannabinoid receptor” (Nature, 2016).

The target in assay [1] is CB2. Further details: method as in PMID 17327489. The settings on record: cited from earlier work.
Assay [2] addresses CB1-PGS (Homo sapiens, UniProt P21554, DEL304-332/H302F/INS301[…]). The experiment in a line: Differential scanning fluorimetry on detergent-solubilized receptor. The note with it: 10 μM ligand. Background: In DSF a fluorescence change marks the thermal transition of the protein.
Description: Differential Scanning Fluorimetry (DSF) assays were performed in 96-well PCR plates using an RT-PCR machine (CFX96, Bio-Rad). Standard assay conditions (25 μL) were 25mM HEPES pH 7.5, 150 mM NaCl, 0.01% LMNG, 0.002% CHS and 10 μM corresponding ligands. The protein concentration was 2 μM and the BODIPY FL-L-cystine dye[38] was added at 2 μM final. All reactions were incubated at 4°C for 20 min before scanning in the PCR machine. The fluorescence was measured at 0.5°C temperature intervals from 4°C to 90°C by using the FAM filter set (450–490 nm excitation, 515–530 nm emission).
The target of assay [3] is CB1. Further details: method as in PMID 17327489. The settings on record: cited from earlier work.

Sequence of CB1-PGS (P21554 with tags, fused parts or gaps INS301[withheld]/H302F/DEL304-332): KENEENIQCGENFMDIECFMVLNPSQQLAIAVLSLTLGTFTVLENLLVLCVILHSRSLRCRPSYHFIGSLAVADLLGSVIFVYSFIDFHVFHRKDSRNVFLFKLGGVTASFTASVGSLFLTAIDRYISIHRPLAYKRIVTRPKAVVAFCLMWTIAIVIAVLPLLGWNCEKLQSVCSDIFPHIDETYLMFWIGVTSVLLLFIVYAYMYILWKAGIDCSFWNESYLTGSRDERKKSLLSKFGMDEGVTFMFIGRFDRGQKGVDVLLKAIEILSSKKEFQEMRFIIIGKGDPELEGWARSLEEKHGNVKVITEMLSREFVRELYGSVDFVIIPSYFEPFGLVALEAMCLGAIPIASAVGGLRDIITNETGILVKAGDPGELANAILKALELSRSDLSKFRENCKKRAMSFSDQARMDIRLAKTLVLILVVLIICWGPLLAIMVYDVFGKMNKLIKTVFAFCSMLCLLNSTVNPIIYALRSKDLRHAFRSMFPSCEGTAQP

What is called Ki is the equilibrium dissociation constant of an inhibitor or competing ligand from its target. `C[C@H](NC(=O)C(C)(C)Oc1ccc(C(F)(F)F)cn1)[C@@H](Cc1ccc(Cl)cc1)c1cccc(C#N)c1` [taranabant, N-[(1S,2S)-3-(4-chlorophenyl)-2-(3-cyanophenyl)-1-methylpropyl]-2-methyl-2-{[5-(trifluoromethyl)pyridin-2-yl]oxy}propanamide]: the Ki in assay [1] is 0.17 µM; in assay [3], 0.00013 µM. Further, the “effect on receptor thermostability (DSF)” value in assay [2] is “enhanced thermostability”.
